{"source": "patent US11053213B2", "about": "“Pharmaceutical compounds” (ALMAC DISCOVERY LIMITED, priority 2016, dated 2021)"}
{"biological_target": "USP19 (Homo sapiens (Human), UniProt O94966)", "sequence (O94966 whole entry)": "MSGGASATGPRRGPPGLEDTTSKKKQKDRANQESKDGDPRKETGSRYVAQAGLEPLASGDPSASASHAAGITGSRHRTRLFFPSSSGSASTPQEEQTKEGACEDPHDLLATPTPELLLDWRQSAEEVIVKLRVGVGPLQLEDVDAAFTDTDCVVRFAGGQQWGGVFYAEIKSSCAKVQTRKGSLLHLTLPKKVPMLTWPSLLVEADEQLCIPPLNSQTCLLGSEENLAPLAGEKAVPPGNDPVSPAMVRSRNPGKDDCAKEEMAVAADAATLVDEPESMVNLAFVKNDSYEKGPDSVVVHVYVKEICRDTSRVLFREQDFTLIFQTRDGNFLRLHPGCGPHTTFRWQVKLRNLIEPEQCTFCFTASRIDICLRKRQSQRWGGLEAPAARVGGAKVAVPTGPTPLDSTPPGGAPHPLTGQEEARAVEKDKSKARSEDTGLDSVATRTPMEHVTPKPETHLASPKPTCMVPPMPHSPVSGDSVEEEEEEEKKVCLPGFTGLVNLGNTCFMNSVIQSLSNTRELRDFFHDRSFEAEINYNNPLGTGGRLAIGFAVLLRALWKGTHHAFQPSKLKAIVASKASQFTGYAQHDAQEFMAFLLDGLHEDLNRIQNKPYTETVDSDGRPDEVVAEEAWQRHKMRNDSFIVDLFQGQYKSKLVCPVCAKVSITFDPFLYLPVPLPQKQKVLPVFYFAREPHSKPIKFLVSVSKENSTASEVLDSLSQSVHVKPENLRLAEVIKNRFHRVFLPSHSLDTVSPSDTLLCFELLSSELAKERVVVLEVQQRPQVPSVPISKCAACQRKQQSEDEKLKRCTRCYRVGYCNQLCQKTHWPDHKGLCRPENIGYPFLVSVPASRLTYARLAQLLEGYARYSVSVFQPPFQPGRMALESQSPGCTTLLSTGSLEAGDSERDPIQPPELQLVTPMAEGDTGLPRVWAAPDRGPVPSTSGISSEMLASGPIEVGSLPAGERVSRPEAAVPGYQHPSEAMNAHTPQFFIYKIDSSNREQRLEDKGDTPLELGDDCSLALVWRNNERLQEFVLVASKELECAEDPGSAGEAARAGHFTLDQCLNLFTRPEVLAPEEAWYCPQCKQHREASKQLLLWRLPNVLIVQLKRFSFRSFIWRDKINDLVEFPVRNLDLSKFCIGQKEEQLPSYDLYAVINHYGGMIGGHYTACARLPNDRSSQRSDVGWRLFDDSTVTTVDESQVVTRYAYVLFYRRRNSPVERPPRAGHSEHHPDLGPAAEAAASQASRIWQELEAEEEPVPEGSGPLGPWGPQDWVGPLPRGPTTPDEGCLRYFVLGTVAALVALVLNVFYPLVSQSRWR", "test": "USP19 activity assay (fluorescence polarisation, Ubiquitin-Lys-TAMRA substrate)", "format": "biochemical", "conditions": "full-length USP19 2.5 nM, 30 min pre-incubation, Ub substrate 500 nM; average of at least two duplicate experiments", "units": {"IC50": "µM"}}
{"compound": "O=C(C(F)CC1CCCCC1)N1CCC(O)(Cn2cnc(-c3ccccc3F)cc2=O)CC1", "note": "(racemic) [Example 49, (R,S)-3-((1-(3-Cyclohexyl-2-fluoropropanoyl)-4-hydroxypiperidin-4-yl)methyl)-6-(2-fluorophenyl)pyrimidin-4(3H)-one]", "IC50": "50 to 250"}
{"compound": "CCC(C)(C)C(=O)N1CCC(O)(Cn2cc(C(=O)N(C)C(C)C)c(-c3ccccc3)cc2=O)CC1", "note": "[Example 84, 1-((1-(2,2-Dimethylbutanoyl)-4-hydroxypiperidin-4-yl)methyl)-N-isopropyl-N-methyl-6-oxo-4-phenyl-1,6-dihydropyridine-3-carboxamide]", "IC50": "50 to 250"}
{"compound": "C[C@H](CC(F)(F)F)C(=O)N1CC[C@@](O)(Cn2cc(C(=O)N(C)C)c(-c3ccccc3F)cc2=O)C2(CCCC2)C1", "note": "[Example 223, 4-(2-Fluorophenyl)-1-(((S)-10-hydroxy-7-((R)-4,4,4-trifluoro-2-methylbutanoyl)-7-azaspiro[4.5]decan-10-yl)methyl)-N,N-dimethyl-6-oxo-1,6-dihydropyridine-3-carboxamide]", "IC50": "0.5 to 5"}
{"compound": "C[C@H](CC1CCCCC1)C(=O)N1CC[C@@](O)(Cn2cc(C(=O)N3CCC(O)CC3)c(-c3ccccc3)cc2=O)C(C)(C)C1", "note": "[Example 228, 1-(((S)-1-((R)-3-Cyclohexyl-2-methylpropanoyl)-4-hydroxy-3,3-dimethylpiperidin-4-yl)methyl)-5-(4-hydroxypiperidine-1-carbonyl)-4-phenylpyridin-2(1H)-one]", "IC50": "< 0.5"}
{"compound": "CN(C)C(=O)c1cn(CC2(O)CCN(C(=O)c3cccn3Cc3ccccc3)CC23CCCC3)c(=O)cc1-c1ccccc1", "note": "(stereo not shown) [Example 198, 1-((7-(1-Benzyl-1H-pyrrole-2-carbonyl)-10-hydroxy-7-azaspiro[4.5]decan-10-yl)methyl)-N,N-dimethyl-6-oxo-4-phenyl-1,6-dihydropyridine-3-carboxamide]", "IC50": "5 to 50"}
{"compound": "CC(C)N(C)C(=O)c1cn(CC2(O)CCN(C(=O)C[C@@H](C)c3ccccc3)CC2)c(=O)cc1-c1ccccc1", "note": "[Example 101, (R)-1-((4-Hydroxy-1-(3-phenylbutanoyl)piperidin-4-yl)methyl)-N-isopropyl-N-methyl-6-oxo-4-phenyl-1,6-dihydropyridine-3-carboxamide]", "IC50": "5 to 50"}
{"compound": "C[C@H](CC1CCCCC1)C(=O)N1CCC(O)(Cn2cc(C(=O)N(C)C)c(-c3ccccc3CN)cc2=O)C2(CCCC2)C1", "note": "(stereo partly drawn) [Example 161, 4-(2-(Aminomethyl)phenyl)-1-((7-((R)-3-cyclohexyl-2-methylpropanoyl)-10-hydroxy-7-azaspiro[4.5]decan-10-yl)methyl)-N,N-dimethyl-6-oxo-1,6-dihydropyridine-3-carboxamide]", "IC50": "5 to 50"}
{"compound": "C[C@H](CC1CCCCC1)C(=O)N1CCC(O)(Cn2cc(C(=O)N3CCOCC3)c(-c3ccccc3)cc2=O)C(C)(C)C1", "note": "(stereo partly drawn) [Example 168, 1-((1-((R)-3-Cyclohexyl-2-methylpropanoyl)-4-hydroxy-3,3-dimethylpiperidin-4-yl)methyl)-5-(morpholine-4-carbonyl)-4-phenylpyridin-2(1H)-one]", "IC50": "< 0.5"}
{"compound": "C[C@H](CC1CCC1)C(=O)N1CCC(O)(Cn2cc(C(=O)N(C)C)c(-c3ccccc3)cc2=O)C(C)(C)C1", "note": "(stereo partly drawn) [Example 128, 1-((1-((R)-3-Cyclobutyl-2-methylpropanoyl)-4-hydroxy-3,3-dimethylpiperidin-4-yl)methyl)-N,N-dimethyl-6-oxo-4-phenyl-1,6-dihydropyridine-3-carboxamide]", "IC50": "0.5 to 5"}
{"compound": "CN(C)C(=O)c1cn(CC2(O)CCN(C(=O)C(O)Cc3ccccc3)CC23CCCC3)c(=O)cc1-c1ccccc1", "note": "(stereo not shown) [Example 203, 1-((10-Hydroxy-7-(2-hydroxy-3-phenylpropanoyl)-7-azaspiro[4.5]decan-10-yl)methyl)-N,N-dimethyl-6-oxo-4-phenyl-1,6-dihydropyridine-3-carboxamide]", "IC50": "0.5 to 5"}
{"compound": "C[C@H](CC(F)(F)F)C(=O)N1CC[C@@](O)(Cn2cc(C(=O)N3CCN(C)CC3)c(-c3ccccc3)cc2=O)C2(CCCC2)C1", "note": "[Example 251, 1-(((S)-10-Hydroxy-7-((R)-4,4,4-trifluoro-2-methylbutanoyl)-7-azaspiro[4.5]decan-10-yl)methyl)-5-(4-methylpiperazine-1-carbonyl)-4-phenylpyridin-2(1H)-one]", "IC50": "< 0.5"}
{"compound": "CC1(C(=O)N2CCC(O)(Cn3cnc(-c4ccccc4F)cc3=O)C(C)(C)C2)CCCCC1", "note": "(racemic) [Example 81, (R,S)-6-(2-Fluorophenyl)-3-((4-hydroxy-3,3-dimethyl-1-(1-methylcyclohexane-1-carbonyl)piperidin-4-yl)methyl)pyrimidin-4(3H)-one]", "IC50": "50 to 250"}
{"compound": "CN(C)C(=O)c1cn(CC2(O)CCN(C(=O)CCC3CCOC3)CC23CCCC3)c(=O)cc1-c1ccccc1", "note": "(stereo not shown) [Example 173, 1-((10-Hydroxy-7-(3-(tetrahydrofuran-3-yl)propanoyl)-7-azaspiro[4.5]decan-10-yl)methyl)-N,N-dimethyl-6-oxo-4-phenyl-1,6-dihydropyridine-3-carboxamide]", "IC50": "50 to 250"}
{"compound": "C[C@H](CC1CCCCC1)C(=O)N1CC[C@@](O)(Cn2cc(C(=O)N3CCNCC3)c(-c3ccccc3)cc2=O)C2(CCCC2)C1", "note": "[Example 212, 1-(((S)-7-((R)-3-Cyclohexyl-2-methylpropanoyl)-10-hydroxy-7-azaspiro[4.5]decan-10-yl)methyl)-4-phenyl-5-(piperazine-1-carbonyl)pyridin-2(1H)-one]", "IC50": "< 0.5"}
{"compound": "C[C@H](CC(=O)N1CCC(O)(Cn2cc(N3CCCC3=O)c(-c3ccccc3)cc2=O)CC1)c1ccccc1", "note": "[Example 55, (R)-1-((4-Hydroxy-1-(3-phenylbutanoyl)piperidin-4-yl)methyl)-5-(2-oxopyrrolidin-1-yl)-4-phenylpyridin-2(1H)-one]", "IC50": "5 to 50"}
{"compound": "C[C@H](CC1CCCCC1)C(=O)N1CCC(O)(Cn2cc(-c3ncco3)c(-c3ccccc3)cc2=O)C(C)(C)C1", "note": "(stereo partly drawn) [Example 136, 1-((1-((R)-3-Cyclohexyl-2-methylpropanoyl)-4-hydroxy-3,3-dimethylpiperidin-4-yl)methyl)-5-(oxazol-2-yl)-4-phenylpyridin-2(1H)-one]", "IC50": "0.5 to 5"}
{"compound": "CN(C)C(=O)c1cn(CC2(O)CCN(C(=O)[C@@H]3C[C@@H]3c3ccccc3)CC23CCCC3)c(=O)cc1-c1ccccc1", "note": "(stereo partly drawn) [Example 174, 1-((10-Hydroxy-7-((1R,2S)-2-phenylcyclopropane-1-carbonyl)-7-azaspiro[4.5]decan-10-yl)methyl)-N,N-dimethyl-6-oxo-4-phenyl-1,6-dihydropyridine-3-carboxamide]", "IC50": "< 0.5"}
{"compound": "CN(C)C(=O)c1cn(CC2(O)CCN(C(=O)C3CC3)CC23CCCC3)c(=O)cc1-c1ccccc1", "note": "(stereo not shown) [Example 175, 1-((7-(Cyclopropanecarbonyl)-10-hydroxy-7-azaspiro[4.5]decan-10-yl)methyl)-N,N-dimethyl-6-oxo-4-phenyl-1,6-dihydropyridine-3-carboxamide]", "IC50": "50 to 250"}
{"compound": "CC(CN1CCOCC1)C(=O)N1CCC(O)(Cn2cc(C(=O)N(C)C)c(-c3ccccc3)cc2=O)C2(CCCC2)C1", "note": "(stereo not shown) [Example 163, 1-((10-Hydroxy-7-(2-methyl-3-morpholinopropanoyl)-7-azaspiro[4.5]decan-10-yl)methyl)-N,N-dimethyl-6-oxo-4-phenyl-1,6-dihydropyridine-3-carboxamide]", "IC50": "5 to 50"}
